Experimental data published in patent US6511978B1, “Pyrrole derivatives useful for farnesyl transferase inhibitors and their preparations” (LG Life Sciences, Ltd., priority 1999, dated 2003).

How the values were obtained:
[1] = molecular target: T1, Ras farnesyl transferase (Homo sapiens, UniProt P49354+P49356); test: Ras farnesyl transferase enzyme inhibition, H-Ras substrate; assay type: biochemical; details: H-Ras substrate protein; recombinant farnesyl transferase; 30 minutes at 37° C.
T1 construct: made in house
Excerpt: (§1) In the present experiment, the improved Pompliano's method (see: Pompliano et al., Biochemistry, 31, 3800, 1992) was applied. Specifically, Ras farnesyl transferase produced by genetic recombination techniques was used, and fused protein of H-Ras(H-Ras-CVLS) substituted with polybasic lysine domain at C-terminus of K-Ras (see: Korean Patent Appln. No. 97-14409) was used as a substrate after it had been purified according to the known method(see, Chung et al., Biochimica et Biophysica Acta, 1129, 278, 1992).
(§2) The enzyme reaction was performed in 50 μl of 50 mM Sodium HEPES buffer solution containing 25 mM of potassium chloride, 25 mM of magnesium chloride, 10 mM of DTT and 50 μM of zinc chloride. 1.5 μM of Ras substrate protein, 0.15 μM of tritium-farnesylpyrophosphate and 4.5 nM of farnesyl transferase were used. More specifically, in the initial step, farnesyl transferase was added to the above buffer solution, reaction was maintained for 30 minutes at 37° C. and then the reaction was stopped by adding 1 ml of ethanol solution containing 1M HCl. The formed precipitates were adsorbed to GF/B filter using Hopper harvestor(Hopper #FH 225V) for filter-binding, washed with ethanol, and then radioactivity of the dried filter was measured using LKB β counter. Enzyme titer was measured in the unsaturated state of substrate where the concentration of Ras substrate protein and farnesyl transferase have quantitative relationship. The compound according to the present invention dissolved in dimethyl sulfoxide(DMSO) was added to the reaction solution in an amount of less than 5% of the total reaction solution, and then the enzyme inhibitory activity thereof was measured. The enzyme inhibitory activity was represented by percentage of the amount of farnesyl incorporated into the Ras substrate protein in the presence of the test compound to that in the absence of the test compound. IC50 of the test compound was defined as the concentration at which 50% of the enzyme activity was inhibited. To evaluate the selective enzyme inhibitory activity of the compound according to the present invention, inhibitory activity on geranylgeranyl transferase was measured. Geranylgeranyl transferase was purified from bovine brain according to the modified Schaber's method(Schaber et al., J. Biol. Chem. 265, 14701, 1990), and substantially the same experimental procedure as that for farnesyl transferase was performed on geranylgeranyl pyrophosphate and Ras-CVIL substrate protein.

[2] = molecular target: T1, Ras farnesyl transferase; test: Ras farnesyl transferase enzyme inhibition, K-Ras substrate (H-Ras fused with polybasic lysine domain of K-Ras); assay type: biochemical; details: K-Ras substrate (fused protein of H-Ras with polybasic lysine domain of K-Ras); recombinant farnesyl transferase
Excerpt: as §1, §2

[3] = molecular target: T2, Ras farnesyl transferase (Rattus norvegicus, UniProt Q02293+Q04631); test: In vivo (intracellular) Ras farnesylation inhibition in Rat2 cell line expressing C-Harvey-Ras; assay type: cell-based; details: Rat2 cells expressing C-Harvey-Ras; concentration inhibiting 50% of farnesyl binding; read-out: H-Ras CIC50
T2 construct: endogenous in cells; host or cells: Rat2 fibroblasts transformed with C-Harvey-Ras or with the H-Ras/K-Ras polybasic-domain fusion
Procedure: (§3) In the present experiment, Rat2 cell line which expresses C-Harvey-Ras protein having transforming activity and Rat2 cell line(Korean patent application No. 97-14409) which is transformed with fused protein of H-Ras substituted with polybasic lysine domain at C-terminus of K-Ras were used. The experiment was performed by the modified Declue's method(Declue. J. E. et al., Cancer Research, 51, 712, 1991) as follows.
(§4) 3×10^5 cells of transformed Rat2 fibroblast cell line were sprayed on 60 mm cell cultivation dish and cultivated for 48 hours in a cell incubator at 37° C. and after 50% or more of density was reached, it was treated with the test compounds. The compound according to the present invention dissolved in dimethylsulfoxide(DMSO) was used. 1% concentration of dimethylsulfoxide was used in both control and test groups. After 4 hours from the treatment with the compound, methionine labeled with 150 μCi of radioactive isotope [^35S] per 1 ml of medium was added and after cultivating for 20 hours, the cells were washed with physiological saline water. The cells were lysed using 1 ml of cold cell lysis buffer solution(50 mM of Sodium HEPES buffer solution containing 5 mM of magnesium chloride, 1 mM of DTT, 1% NP 40, 1 mM of EDTA, 1 mM of PMSF, 2 μM of leupeptin, 2 μM of pepstatin A and 2 μM of antipain) and the supernatant wherein the cells were lysed was obtained by high-velocity centrifugation of 12,000 g×5 minutes. The amount of radioisotope in the supernatant was measured and standardized to obtain a quantitative result in immunoprecipitation reaction and then, Y13-259, a monoclonal antiboby specifically binding to Ras protein(see: Furth, M. E. et al., J. Virol, 43, 294, 1982) was added and reacted for 15 hours at 4° C. Protein A(combined with goat anti-murine immunoglobulin antibody)-agarose suspension was added to the solution and reacted for 1 hour at 4° C. and then, to remove the unspecific binding product, immunoprecipitates were washed with a buffer solution (50 mM Tris chloride buffer solution containing 50 mM of sodium chloride, 0.5% of sodium dioxycholate, 0.5% of NP 40 and 0.1% of SDS). The precipitates were added to a buffer solution for electrophoresis and boiled and then, electrophoresis was performed using 13.5% of SDS polyacrylamide gel. After electrophoresis, the gel was fixed and dried. Then, the gel was exposed to X-ray film, developed and printed. From the result of the experiment, intensities of band of protein combined with or without farnesyl of Ras protein was measured, and the concentration of the test compound inhibiting 50% of farnesyl binding was defined as CIC50, an in vivo Ras farnesyl transferase inhibitory activity. IC50 means the data from Experimental 1 and CIC50 means the data from Experimental 2.

[4] = molecular target: T2, Ras farnesyl transferase; test: In vivo (intracellular) Ras farnesylation inhibition in Rat2 cell line transformed with H-Ras fused with polybasic lysine domain of K-Ras; assay type: cell-based; details: Rat2 cells transformed with H-Ras/K-Ras polybasic domain fused protein; concentration inhibiting 50% of farnesyl binding; read-out: K-Ras CIC50
Procedure: as §3, §4

SMILES	IC50 [1] [nM]	IC50 [2] [nM]	IC50 [3] [nM]	IC50 [4] [nM]
Cc1ncn(Cc2ccc3c(c2)OCO3)c1Cn1cc(C(=O)N2CCN(C)CC2)c(-c2cccc3ccccc23)c1 [Example 16, 1-[4-methyl-1-(3,4-methylenedioxybenzyl)-1H-imidazol-5-ylmethyl]-3-(4-methylpiperazin-1-yl)carbonyl-4-(naphthalen-1-yl)-1H-pyrrole]	< 1.5	< 2.3	> 25	> 10000
CN1CCN(C(=O)c2cn(Cc3cnc(N)n3Cc3ccc4c(c3)OCO4)cc2-c2cccc3ccccc23)CC1 [Example 17, 1-[2-amino-1-(3,4-methylenedioxybenzyl)-1H-imidazol-5-ylmethyl]-3-(4-methylpiperazin-1-yl)carbonyl-4-(naphthalen-1-yl)-1H-pyrrole]	< 1.8	< 6.4	> 25	> 10000
CSc1ncc(Cn2cc(C(=O)N3CCN(C)CC3)c(-c3cccc4ccccc34)c2)n1Cc1ccc2c(c1)OCO2 [Example 18, 1-[1-(3,4-methylenedioxybenzyl)-2-methylthio-1H-imidazol-5-ylmethyl]-3-(4-methylpiperazin-1-yl)carbonyl-4-(naphthalen-1-yl)-1H-pyrrole]	< 3.5	< 12	> 25	> 10000
CSc1c(C(=O)N2CCN(C)CC2)c(-c2cccc3ccccc23)cn1Cc1cncn1Cc1ccc2c(c1)OCO2 [Example 19, 1-[1-(3,4-methylenedioxybenzyl)-1H-imidazol-5-ylmethyl]-3-(4-methylpiperazin-1-yl)carbonyl-2-methylthio-4-(naphthalen-1-yl)-1H-pyrrole]	< 0.95	< 2	< 12.5	> 10000
CN1CCN(C(=O)c2cn(Cc3c(I)ncn3Cc3ccc4c(c3)OCO4)cc2-c2cccc3ccccc23)CC1 [Example 20, 1-[4-iodo-1-(3,4-methylenedioxybenzyl)-1H-imidazol-5-ylmethyl]-3-(4-methylpiperazin-1-yl)carbonyl-4-(naphthalen-1-yl)-1H-pyrrole]	< 3.5	< 18	> 25	> 10000
CN1CCN(C(=O)c2cn(Cc3c([N+](=O)[O-])ncn3Cc3ccc4c(c3)OCO4)cc2-c2cccc3ccccc23)CC1 [Example 21, 1-[1-(3,4-methylenedioxybenzyl)-4-nitro-1H-imidazol-5-ylmethyl]-3-(4-methylpiperazin-1-yl)carbonyl-4-(naphthalen-1-yl)-1H-pyrrole]	> 30	> 30	> 30	> 10000

The remaining lines, values ahead:

IC50 [1] [nM]	IC50 [2] [nM]	IC50 [3] [nM]	IC50 [4] [nM]	SMILES
< 2.7	< 30	> 25	> 10000	CN1CCN(C(=O)c2cn(Cc3c(N)ncn3Cc3ccc4c(c3)OCO4)cc2-c2cccc3ccccc23)CC1 [Example 22, 1-[4-amino-1-(3,4-methylenedioxybenzyl)-1H-imidazol-5-ylmethyl]-3-(4-methylpiperazin-1-yl)carbonyl-4-(naphthalen-1-yl)-1H-pyrrole]
< 22	> 30	> 30	> 10000	CON1CCN(C(=O)c2cn(Cc3c(C)ncn3Cc3ccc4c(c3)OCO4)cc2-c2cccc3ccccc23)CC1 [Example 23, 3-(4-methoxypiperazin-1-yl)carbonyl-1-[4-methyl-1-(3,4-methylenedioxybenzyl)-1H-imidazol-5-ylmethyl]-4-(naphthalen-1-yl)-1H-pyrrole]
< 4.45	< 7	> 25	< 10000	Cc1c(C(=O)N2CCN(C)CC2)c(-c2cccc3ccccc23)cn1Cc1cncn1Cc1ccc2c(c1)OCO2 [Example 24, 2-methyl-1-[1-(3,4-methylenedioxybenzyl)-1H-imidazol-5-ylmethyl]-3-(4-methylpiperazin-1-yl)carbonyl-4-(naphthalen-1-yl)-1H-pyrrole]
